{
  "source": "patent US8110596B2",
  "about": "“Triprenyl phenol compound, process for production of triprenyl phenol compound, and thrombolysis enhancer” (Tokyo University of Agriculture and Technology TLO Co., Ltd., priority 2006, dated 2012)",
  "key": {"plasminogen [1]": {"target": "T1, plasminogen (Homo sapiens, UniProt P00747)", "T1 sequence (P00747 20-810 limits assumed, species assumed)": "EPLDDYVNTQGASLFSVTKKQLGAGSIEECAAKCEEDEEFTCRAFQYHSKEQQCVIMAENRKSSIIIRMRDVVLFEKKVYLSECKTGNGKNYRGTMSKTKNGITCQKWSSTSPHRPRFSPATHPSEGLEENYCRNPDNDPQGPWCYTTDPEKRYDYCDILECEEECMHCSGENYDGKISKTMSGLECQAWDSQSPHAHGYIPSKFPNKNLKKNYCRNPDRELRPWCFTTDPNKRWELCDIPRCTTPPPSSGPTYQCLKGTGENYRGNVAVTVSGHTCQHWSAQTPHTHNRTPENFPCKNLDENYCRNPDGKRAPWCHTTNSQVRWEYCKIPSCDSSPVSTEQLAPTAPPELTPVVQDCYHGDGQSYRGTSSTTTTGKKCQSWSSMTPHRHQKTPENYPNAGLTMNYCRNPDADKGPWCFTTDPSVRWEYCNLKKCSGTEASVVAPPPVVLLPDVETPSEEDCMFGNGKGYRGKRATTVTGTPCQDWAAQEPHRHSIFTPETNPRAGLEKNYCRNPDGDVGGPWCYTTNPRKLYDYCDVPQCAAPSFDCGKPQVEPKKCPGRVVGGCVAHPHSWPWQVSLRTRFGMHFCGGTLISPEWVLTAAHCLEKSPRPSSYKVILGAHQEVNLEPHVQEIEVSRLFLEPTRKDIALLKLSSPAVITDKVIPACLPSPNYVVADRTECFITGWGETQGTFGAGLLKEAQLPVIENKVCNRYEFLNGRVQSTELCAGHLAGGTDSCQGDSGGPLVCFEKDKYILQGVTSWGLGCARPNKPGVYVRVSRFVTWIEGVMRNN", "test": "Measurement of plasminogen activation by urokinase catalysis, VLK-pNA hydrolysis (Example 5)", "type": "biochemical", "details": "50 μM, 100 μM and 200 μM, 37° C., 60 minutes", "procedure": "(§1) The fibrinolysis enhancing activity of SMTP-0 (50 μM, 100 μM and 200 μM) obtained in Example 2 was evaluated as follows, as the activity for promoting the plasminogen activation by urokinase catalysis.\n(§2) A 30 mM solution of SMTP (DMSO solution) was diluted with TBS/T (50 mM Tris-HCl, 100 mM NaCl and 0.01% Tween80, pH 7.4) to prepare a 1.5 mM solution (in 5% DMSO·TBS/T). This solution was diluted with 5% DMSO in TBS/T to prepare SMTP solutions at the concentrations mentioned above.\n(2) Measurement of Plasminogen Activation\n10 μl of an SMTP solution (10 μl) was mixed with 40 μl of a reaction liquid at a 1.25-fold concentration (0.0625 μM of plasminogen, 62.5 U/ml of urokinase, and 0.125 mM of VLK-pNA) in a 96-well microplate, and measurement was made by immediately monitoring the absorption of the hydrolysis of VLK-pNA at 405 nm over time with a microplate reader. The measurement was performed at 37° C. for 60 minutes at an interval of 2 minutes."}, "plasminogen [2]": {"target": "T1, plasminogen", "test": "Measurement of activity of plasminogen fragment production (Example 5)", "type": "biochemical", "details": "50 μM, 100 μM and 200 μM; 60 minutes at 37° C., SDS polyacrylamide gel electrophoresis", "procedure": "as §1, §2\n(1) Measurement of Activity of Plasminogen Fragment Production\nAn SMTP solution (60 μl) was mixed with 240 μl of a reaction liquid at a 1.25-fold concentration (not containing VLK-pNA (Val-Leu-Lys-p-nitroanilide)), and the mixture was allowed to react for 60 minutes at 37° C. Then, 75 μl of 50% trichloroacetic acid (TCA) was added to terminate the reaction, and the mixture was left to stand in ice for 60 minutes. TCA-insoluble materials were precipitated by centrifugation, and the precipitate was washed two times with acetone. The obtained precipitate was dried, and then dissolved with 11 μl of added SDS sample buffer (0.125 M Tris-Cl, pH 6.8, 4% SDS, 20% glycerol and 0.02% bromophenol blue). 10 μl of the solution was used to perform SDS polyacrylamide gel electrophoresis (10% gel)."}},
  "data": [
    {"molecule": "CC(C)=CCC/C(C)=C/CC[C@]1(C)Oc2c(c(O)cc3c2CNC3=O)C[C@@H]1O", "note": "[SMTP-0]", "values": [
      {"measurement": "action of enhancing the plasminogen activation", "setting": "plasminogen [1]", "value": "did not indicate any action"},
      {"measurement": "action on the generation of plasminogen fragments having the angiogenesis inhibitory activity", "setting": "plasminogen [2]", "value": "did not exhibit any action"}
    ]}
  ]
}
